Assay [1] can be described thus: Luminescence Cell-Based Dose Response to Identify Activators of Luciferase Translation or Activity in H4-C Neuroglioblastoma Cells. [Related pubchem assays: 1829 (Project Summary), 1814 (Primary HTS)]. Format: functional.
Assay [2] concerns Streptococcus sp. 'group A'. Description: Streptococcus pyogenes SK(-)GAS viability under kanamycin – luminescence, BacTiterGlo, confirmation, counter-screen for streptokinase expression inhibitor project, dose response (AID 1900). Format: functional, organism-based.
In a further assay the target is T1, Streptokinase A (Streptococcus pyogenes serotype M1, UniProt P10520).
T1 sequence (P10520 whole entry): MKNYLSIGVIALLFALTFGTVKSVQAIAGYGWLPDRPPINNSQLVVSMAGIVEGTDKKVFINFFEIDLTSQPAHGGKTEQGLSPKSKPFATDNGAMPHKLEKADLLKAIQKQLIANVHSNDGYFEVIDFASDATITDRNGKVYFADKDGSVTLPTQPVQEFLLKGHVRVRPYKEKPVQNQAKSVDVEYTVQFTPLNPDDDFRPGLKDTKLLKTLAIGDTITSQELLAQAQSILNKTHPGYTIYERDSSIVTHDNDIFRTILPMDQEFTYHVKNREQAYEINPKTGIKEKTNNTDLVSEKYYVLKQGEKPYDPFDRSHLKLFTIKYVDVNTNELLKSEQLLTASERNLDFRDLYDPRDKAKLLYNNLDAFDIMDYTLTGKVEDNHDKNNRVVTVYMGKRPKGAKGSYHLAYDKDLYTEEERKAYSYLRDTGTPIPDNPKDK
Description: viability-normalized secreted streptokinase activity reduction – plasminogen activation absorbance, OD405, dose response (AID 1914).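 Further: secreted streptokinase activity via plasminogen activation per viability signal from cell pellet.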 Format: functional, Streptococcus pyogenes M1 GAS.

A short description of assay [3]: Luminescence Cell-Based Dose Response to Identify Activators of 5'UTR Stem-Loop Driven Prion Protein mRNA Translation in H4-C Neuroglioblastoma Cells. [Related pubchem assays: 1829 (Project Summary), 1814 (Primary HTS)]. Format: functional.
A further assay relates to Streptococcus. Description: GAS UMAA2166 growth inhibition – luminescence, BacTiterGlo, counter-screen for streptokinase expression inhibitor project, dose response (AID 1915).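 Further: potency for reduction of bacterial viability or growth.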 Format: functional, organism-based.
In a further assay the test system is H4. Kind of assay: Luminescence Cell-Based Dose Response HTS to Identify Activators of 5'UTR Stem-Loop Driven Prion Protein mRNA Translation in H4 Neuroglioblastoma Cells. [Related pubchem assays: 1829 (Project Summary), 1814 (Primary HTS)]. Format: functional. The conditions noted are these: Homo sapiens.
In a further assay the target is NS3 (Hepatitis C virus, UniProt A3EZJ3). Description: PubChem AID 2173. The arrangement: species or system Hepacivirus hominis.
NS3, sequence (A3EZJ3 whole entry): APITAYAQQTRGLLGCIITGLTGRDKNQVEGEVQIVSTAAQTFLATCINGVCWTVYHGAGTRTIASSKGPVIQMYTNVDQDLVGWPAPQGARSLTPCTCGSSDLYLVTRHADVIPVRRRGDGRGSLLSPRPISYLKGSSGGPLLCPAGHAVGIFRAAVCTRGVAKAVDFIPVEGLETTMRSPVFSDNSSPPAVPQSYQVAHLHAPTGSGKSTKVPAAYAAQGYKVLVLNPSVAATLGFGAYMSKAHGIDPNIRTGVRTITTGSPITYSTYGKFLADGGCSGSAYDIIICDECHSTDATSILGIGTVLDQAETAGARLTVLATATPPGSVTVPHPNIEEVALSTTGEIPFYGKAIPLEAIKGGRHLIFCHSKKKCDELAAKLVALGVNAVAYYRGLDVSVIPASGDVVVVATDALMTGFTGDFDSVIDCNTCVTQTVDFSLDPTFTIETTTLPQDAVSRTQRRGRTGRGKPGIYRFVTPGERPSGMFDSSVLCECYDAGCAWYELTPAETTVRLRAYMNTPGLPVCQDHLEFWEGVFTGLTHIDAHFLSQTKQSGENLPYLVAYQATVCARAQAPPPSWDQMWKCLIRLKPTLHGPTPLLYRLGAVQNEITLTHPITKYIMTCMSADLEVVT
Assay [4] is described as follows: Luminescence Cell-Based Dose Confirmation HTS to Identify Activators of 5'UTR Stem-Loop Driven Alpha-Synuclein mRNA Translation in H4 Neuroglioblastoma Cells. [Related pubchem assays: 1829 (Project Summary), 1814 (Primary HTS)]. Format: functional.
Assay [5] is described as follows: NIH3T3 cell viability loss – ATP luminescence, mouse fibroblasts, counter-screen, dose response (AID 2010).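 Further: cells exposed to compound for about 90 hours before reading.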 Format: functional, cell-based.
Assay [6] in a line: Luminescence Cell-Based Dose Response HTS to Identify Activators of Luciferase Translation or Activity in H4 […] Cells. [Related pubchem assays: 1829 (Project Summary), 1814 (Primary HTS)]. Format: functional.
In the next assay the test system is INS1. Description: INS-1E survival protection against cytokine death – cell-based, luminescence, retest, dose response (AID 449756).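 Further: cell death triggered by IL-1 beta plus TNF-alpha plus IFN-gamma mixture; protective hits raise ATP signal compared with cytokine alone wells.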 Format: functional. The following applies: Rattus norvegicus, INS1.
The nature of assay [7]: Trypanosoma cruzi growth suppression in host cells – NIH3T3 host cells, beta-gal luminescence, confirmation (AID 2044).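 Further: intracellular parasites grown in NIH/3T3 mouse fibroblasts as host cells; luminescent beta-galactosidase reporter signal from transgenic T. cruzi replicating inside host cells; inhibitors lower the luminescence signal.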 Format: functional, cell-based.
Assay [8] can be described thus: Luminescence Cell-Based Dose Confirmation to Identify Activators of 5'UTR Stem-Loop Driven Alpha-Synuclein mRNA Translation in H4 Neuroglioblastoma Cells. [Related pubchem assays: 1829 (Project Summary), 1814 (Primary HTS)]. Format: functional.
The target in assay [9] is Luciferin 4-monooxygenase (Photinus pyralis, UniProt P08659). Kind of assay: inhibition of purified Photinus pyralis luciferase – biochemical, luminescence, dose response (AID 1891).
Luciferin 4-monooxygenase, sequence (P08659 whole entry): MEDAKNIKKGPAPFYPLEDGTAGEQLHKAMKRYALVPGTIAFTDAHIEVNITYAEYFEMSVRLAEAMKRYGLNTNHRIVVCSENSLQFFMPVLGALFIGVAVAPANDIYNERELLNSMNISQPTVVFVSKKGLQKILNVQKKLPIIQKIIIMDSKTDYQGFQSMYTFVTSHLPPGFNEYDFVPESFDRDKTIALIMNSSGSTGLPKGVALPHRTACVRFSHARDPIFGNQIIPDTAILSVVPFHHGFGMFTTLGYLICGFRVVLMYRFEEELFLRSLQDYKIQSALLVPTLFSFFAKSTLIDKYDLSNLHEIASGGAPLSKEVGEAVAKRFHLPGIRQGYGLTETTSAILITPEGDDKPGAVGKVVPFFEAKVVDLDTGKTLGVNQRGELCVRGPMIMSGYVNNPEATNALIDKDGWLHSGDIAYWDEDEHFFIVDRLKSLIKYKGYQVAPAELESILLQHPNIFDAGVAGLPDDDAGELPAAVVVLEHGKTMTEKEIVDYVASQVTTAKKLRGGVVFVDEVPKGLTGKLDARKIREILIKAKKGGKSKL
Assay [10] is described as follows: Luminescence Cell-Based Dose Confirmation HTS to Identify Inhibitors of Platelet Dense Granule Release. [Related pubchem assays: 1663 (Primary HTS), 1678 (Summary of Project)]. Format: functional.
Assay [11] addresses Neuropeptide Y receptor type 2 (Homo sapiens, UniProt P49146). Kind of assay: Fluorescence-based cell-based high-throughput dose response assay for agonists of NPY-Y2. [Related pubchem assays: 1703 (Screening assay (CNGC inhibitors).), 1359 (Screening assay (NPY-Y2 potentiators or agonists).), 1304 (Screening assay (NPY-Y1 potentiators or agonists).), 1710 (Screening assay (NPY-Y2 agonists).), 1791 (Summary AID.)]. Format: functional.

Assay [12] has as its target Neuropeptide Y receptor type 1 (Homo sapiens, UniProt P25929). Kind of assay: Fluorescence-based counterscreen for agonists of NPY-Y2: cell-based high-throughput dose response assay for agonists of NPY-Y1. Format: functional.
Assay [13] has as its system HEK293. Kind of assay: Fluorescence-based counterscreen for potentiators or agonists of NPY-Y2: cell-based high-throughput dose response assay to identify inhibitors of cyclic nucleotide gated ion channel (CNGC) activity. In this assay, the parental HEK293 cell line transfected with a cyclic-nucleotide gated ion channel (CNGC)-based cAMP sensor is used to measure inhibition of isoproterenol-induced CNGC activity by test compound. Format: functional. The conditions noted are these: Homo sapiens.

The target of another assay is Galanin receptor type 3 (Homo sapiens, UniProt O60755). Description: Fluorescence-based cell-based primary high throughput dose response assay to identify antagonists of the Galanin Receptor 3 (GalR3). Format: functional.
Galanin receptor type 3, sequence (O60755 whole entry): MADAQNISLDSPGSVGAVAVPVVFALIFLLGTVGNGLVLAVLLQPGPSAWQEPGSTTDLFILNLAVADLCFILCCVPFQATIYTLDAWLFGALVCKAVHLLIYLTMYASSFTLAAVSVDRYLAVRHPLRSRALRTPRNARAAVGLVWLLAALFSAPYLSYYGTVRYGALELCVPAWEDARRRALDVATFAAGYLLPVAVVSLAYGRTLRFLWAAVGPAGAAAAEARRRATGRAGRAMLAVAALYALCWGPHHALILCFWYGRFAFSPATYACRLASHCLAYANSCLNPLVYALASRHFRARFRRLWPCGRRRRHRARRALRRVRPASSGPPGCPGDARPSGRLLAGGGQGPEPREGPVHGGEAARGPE
The next assay can be described thus: cells. Format: functional, cell-based. The conditions noted are these: HEK-CNG.
Another assay has as its target Insulin-degrading enzyme (Homo sapiens, UniProt P14735). Description: Dose Response: Fluorescence polarization-based cell-based high throughput dose response assay for inhibitors of insulin-degrading enzyme (IDE). [Related pubchem assays: 434962 (Primary screen (IDE inhibitors in singlicate)), 449730 (Counterscreen (Cytotoxicity in triplicate)), 435028 (Confirmation (IDE inhibitors in triplicate)), 434984 (Summary …. Format: functional.

Assay [14] can be described thus: Counterscreen for IDE inhibitors: Luminescence-based cell-based high throughput dose response assay to identify compounds that are cytotoxic to HEK cells. [Related pubchem assays: 434962 (Primary screen (IDE inhibitors in singlicate)), 449730 (Counterscreen (Cytotoxicity in triplicate)), 435028 (Confirmation (IDE inhibitors in triplicate)) …. Format: functional. The conditions noted are these: HEK293.

In assay [15] the target is Induced myeloid leukemia cell differentiation protein Mcl-1 (Homo sapiens, UniProt Q07820). Format: functional.
Induced myeloid leukemia cell differentiation protein Mcl-1, sequence (Q07820 whole entry): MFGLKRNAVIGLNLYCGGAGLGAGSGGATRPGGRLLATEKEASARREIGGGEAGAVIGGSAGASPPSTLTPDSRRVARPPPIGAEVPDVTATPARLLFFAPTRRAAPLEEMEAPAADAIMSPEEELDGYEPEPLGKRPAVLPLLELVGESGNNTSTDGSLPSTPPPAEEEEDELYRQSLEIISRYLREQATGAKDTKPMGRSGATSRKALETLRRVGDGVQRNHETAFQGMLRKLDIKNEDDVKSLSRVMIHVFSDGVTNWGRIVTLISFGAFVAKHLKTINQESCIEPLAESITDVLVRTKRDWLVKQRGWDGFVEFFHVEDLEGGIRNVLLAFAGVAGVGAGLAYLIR
The target in assay [16] is T2, Small ubiquitin-related modifier 1 (Homo sapiens, UniProt P63165). Description: SUMO1 protein interaction blockers, potency – biochemical, fluorescence polarization, uHTS hits, dose response (AID 624382). Format: functional. The following applies: read-out: IC50_Mean.
T2 sequence (P63165 whole entry): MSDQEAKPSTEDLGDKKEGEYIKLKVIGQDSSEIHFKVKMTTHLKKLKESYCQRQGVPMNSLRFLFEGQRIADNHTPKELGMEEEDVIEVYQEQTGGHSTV
A further assay has as its target Genome polyprotein (Hepatitis C virus, UniProt Q2Q167). Description: disruption of hepatitis C core self-association – biochemical, TR-FRET, dose response (AID 2159).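 Further: blocks dimerization of HCV core protein measured by TR-FRET between tagged core106 pairs.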 Details: species or system Hepacivirus hominis.
Assay [17] addresses T2, Small ubiquitin-related modifier 1. Kind of assay: SUMO1 protein-protein binding blockers, potency – biochemical, FRET, dose response (AID 624383). Format: functional. The following applies: read-out: IC50_Mean.
A further assay has as its target T3, Estrogen receptor (Homo sapiens, UniProt P03372).
T3 sequence (P03372 whole entry): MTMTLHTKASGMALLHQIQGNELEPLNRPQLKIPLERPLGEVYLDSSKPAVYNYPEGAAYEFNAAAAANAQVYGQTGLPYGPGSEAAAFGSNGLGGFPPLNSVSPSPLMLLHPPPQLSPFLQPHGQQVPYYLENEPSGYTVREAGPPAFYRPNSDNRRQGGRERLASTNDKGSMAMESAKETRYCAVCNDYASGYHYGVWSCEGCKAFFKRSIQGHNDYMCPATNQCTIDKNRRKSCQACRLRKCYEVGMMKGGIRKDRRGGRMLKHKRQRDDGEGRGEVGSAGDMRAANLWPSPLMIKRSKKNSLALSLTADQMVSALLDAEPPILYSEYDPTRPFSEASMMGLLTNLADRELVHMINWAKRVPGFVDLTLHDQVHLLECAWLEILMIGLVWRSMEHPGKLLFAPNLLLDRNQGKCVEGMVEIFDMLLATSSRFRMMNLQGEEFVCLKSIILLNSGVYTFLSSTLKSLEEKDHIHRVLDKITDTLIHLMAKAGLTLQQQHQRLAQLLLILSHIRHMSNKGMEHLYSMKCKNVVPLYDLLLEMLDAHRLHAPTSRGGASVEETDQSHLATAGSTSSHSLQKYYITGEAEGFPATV
Description: blockers of SRC-3 recruitment to ERα – biochemical, ELISA, streptavidin-HRP readout, orthogonal assay, confirmation (AID 1079).

The test system of assay [18] is HEK293. Description: cells. The conditions noted are these: Homo sapiens.
A short description of assay [19]: reduction of Shn3 3'UTR-driven luciferase in osteoblasts – cell-based, Clone20 osteoblasts, firefly luciferase, cherry-picked, dose response (AID 624132).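 Further: firefly luciferase luminescence from reporter carrying the Shn3 3'UTR in osteoblasts.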 Format: functional.
A short description of assay [20]: non-specific 3'UTR reporter inhibition in Clone20-Shn3RL – cell-based, Renilla luciferase, cherry-picked, counter-screen for Shn3 inhibitor project, dose response (AID 624133). Format: functional.
The nature of assay [21]: loss of viability in HepG2 cells – cell-based, CellTiter-Glo, cherry-picked, cytotoxicity control for Shn3 inhibitor project, dose response (AID 624134). Format: functional.
Assay [22] relates to HEK293. Kind of assay: cells. The conditions noted are these: Homo sapiens. This is another data set of the same source.
Assay [23] deals with T4, Microphthalmia-associated transcription factor (Homo sapiens, UniProt O75030).
T4 sequence (O75030 whole entry): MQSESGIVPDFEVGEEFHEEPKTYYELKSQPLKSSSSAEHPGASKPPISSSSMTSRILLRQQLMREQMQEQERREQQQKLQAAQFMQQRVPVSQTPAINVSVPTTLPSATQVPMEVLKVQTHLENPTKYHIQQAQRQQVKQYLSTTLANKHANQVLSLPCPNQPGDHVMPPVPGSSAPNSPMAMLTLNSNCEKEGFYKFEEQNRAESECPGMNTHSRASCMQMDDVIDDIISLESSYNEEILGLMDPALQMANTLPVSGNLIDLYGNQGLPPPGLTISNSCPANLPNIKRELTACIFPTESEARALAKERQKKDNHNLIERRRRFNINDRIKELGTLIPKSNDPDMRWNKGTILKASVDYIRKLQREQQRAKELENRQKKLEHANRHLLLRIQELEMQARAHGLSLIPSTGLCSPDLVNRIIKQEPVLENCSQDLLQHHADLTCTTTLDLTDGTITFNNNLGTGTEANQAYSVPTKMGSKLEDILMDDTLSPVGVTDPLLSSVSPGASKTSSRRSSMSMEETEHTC
Description: reducers of TRPM1 reporter luminescence, concentration series – cell-based, SK-MEL-5, cherry-picked, set 3, MITF inhibitor project, dose response (AID 493073).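 Further: SK-MEL-5 melanoma cells with luciferase driven by the MITF target TRPM1 promoter.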 Format: functional.

In another assay the test system is HeLa. Kind of assay: Cytotoxicity counterscreen assay for transcriptional activators of heat shock protein 70 (Hsp70). [Related pubchem assays: 1203, 1252 ]. The following applies: Homo sapiens. Format: functional.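 Further: cells exposed to compound for 16 hours before readout.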

SMILES strings stand for the structures. Active and inactive are the calls of the source.

Neuropeptide Y receptor type 2, sequence (P49146 whole entry): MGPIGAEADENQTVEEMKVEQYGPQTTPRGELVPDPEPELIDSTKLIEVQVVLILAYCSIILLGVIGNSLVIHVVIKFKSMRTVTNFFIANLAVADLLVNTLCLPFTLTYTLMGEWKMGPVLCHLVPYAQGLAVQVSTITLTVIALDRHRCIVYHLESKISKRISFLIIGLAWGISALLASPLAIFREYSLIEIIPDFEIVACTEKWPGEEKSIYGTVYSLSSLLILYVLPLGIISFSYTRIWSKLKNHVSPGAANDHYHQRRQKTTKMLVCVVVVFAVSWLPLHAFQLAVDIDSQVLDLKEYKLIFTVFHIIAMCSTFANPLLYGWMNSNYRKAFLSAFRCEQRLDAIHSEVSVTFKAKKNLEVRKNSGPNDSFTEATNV
Genome polyprotein, sequence (Q2Q167 whole entry): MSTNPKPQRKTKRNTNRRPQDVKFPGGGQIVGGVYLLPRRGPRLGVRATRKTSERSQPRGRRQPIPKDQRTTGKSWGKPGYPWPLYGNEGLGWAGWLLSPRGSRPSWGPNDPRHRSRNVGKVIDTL
Insulin-degrading enzyme, sequence (P14735 whole entry): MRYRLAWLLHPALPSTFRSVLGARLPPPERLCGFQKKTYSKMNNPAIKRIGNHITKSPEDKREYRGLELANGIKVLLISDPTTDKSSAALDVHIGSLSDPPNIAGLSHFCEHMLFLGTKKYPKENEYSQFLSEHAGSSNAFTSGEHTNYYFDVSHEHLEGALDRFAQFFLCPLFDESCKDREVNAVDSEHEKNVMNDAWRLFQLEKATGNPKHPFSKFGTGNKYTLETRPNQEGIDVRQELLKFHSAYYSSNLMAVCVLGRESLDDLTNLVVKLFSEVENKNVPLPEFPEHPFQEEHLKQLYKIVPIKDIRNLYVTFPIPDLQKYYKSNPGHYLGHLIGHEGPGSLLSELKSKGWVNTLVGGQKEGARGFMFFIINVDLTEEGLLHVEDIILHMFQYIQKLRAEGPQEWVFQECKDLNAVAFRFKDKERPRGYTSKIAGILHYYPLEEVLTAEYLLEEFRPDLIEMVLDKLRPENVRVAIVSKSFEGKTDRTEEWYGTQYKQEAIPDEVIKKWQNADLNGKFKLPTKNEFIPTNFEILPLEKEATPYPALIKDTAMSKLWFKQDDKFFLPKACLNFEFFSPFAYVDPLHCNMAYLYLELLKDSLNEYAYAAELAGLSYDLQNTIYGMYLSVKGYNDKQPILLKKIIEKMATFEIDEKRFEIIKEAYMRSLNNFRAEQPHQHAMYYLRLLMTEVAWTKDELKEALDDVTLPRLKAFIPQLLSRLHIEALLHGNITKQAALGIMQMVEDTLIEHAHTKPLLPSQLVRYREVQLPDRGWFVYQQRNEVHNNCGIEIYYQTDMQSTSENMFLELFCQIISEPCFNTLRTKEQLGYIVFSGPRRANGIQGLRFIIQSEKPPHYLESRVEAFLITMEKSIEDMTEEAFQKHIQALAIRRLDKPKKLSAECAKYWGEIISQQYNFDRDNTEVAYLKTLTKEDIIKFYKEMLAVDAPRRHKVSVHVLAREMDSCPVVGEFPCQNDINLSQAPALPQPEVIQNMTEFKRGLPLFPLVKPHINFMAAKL
Neuropeptide Y receptor type 1, sequence (P25929 whole entry): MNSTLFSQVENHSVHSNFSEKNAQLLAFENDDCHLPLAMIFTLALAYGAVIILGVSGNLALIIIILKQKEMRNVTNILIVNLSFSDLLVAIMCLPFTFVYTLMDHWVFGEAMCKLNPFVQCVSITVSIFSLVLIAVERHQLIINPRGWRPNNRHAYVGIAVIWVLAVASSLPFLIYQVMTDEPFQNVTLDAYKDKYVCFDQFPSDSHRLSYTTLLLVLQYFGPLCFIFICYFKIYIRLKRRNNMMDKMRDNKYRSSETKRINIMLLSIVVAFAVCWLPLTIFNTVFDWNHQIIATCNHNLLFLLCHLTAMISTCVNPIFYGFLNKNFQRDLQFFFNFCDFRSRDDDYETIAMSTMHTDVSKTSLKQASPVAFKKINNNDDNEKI

As for `NC(=S)N/N=C/c1ccc(C23CC4CC(CC(C4)C2)C3)cc1`, the EC50 in assay [1] is 0.415 µM (active); in [2], 2.4 µM (active); at Streptokinase A, 13.4 µM (active); in assay [3] it was 1.31 µM (active); in the assay with Streptococcus, > 50 µM (not active); with H4 it was 96.8 µM (active). In addition, the EC50 in assay [4] is < 0.1 µM (active); in assay [5] it was 7.3 µM (active); in [6] it was < 0.1 µM (active); in [7], 0.387 µM (active); in assay [8], 0.324 µM (active). In addition, the IC50 at NS3 was 5.41 µM (active). Further, the AC50 in the assay with INS1 is 5.3 µM (active).
Consider `Nc1cc(-c2ccc(Br)cc2)nn1Cc1ccccc1`, for which the EC50 is > 112 µM (not active) in assay [9]; 13.1 µM (active) in the assay on H4; > 112 µM (not active) in assay [10]; 7.99 µM (active) in [4]; 13.1 µM (not active) in assay [11]; 11.6 µM (not active) in [12]. Besides, the concentration for a half-maximal effect (EC50) in the assay on HEK293 [13] is 9.3 µM (active); in assay [6], 18 µM (active); in “cells”, > 29.9 µM (inactive). For the same compound, the IC50 at Galanin receptor type 3 is 3.55 µM (active).
In the case of `COc1cccc(/C=N/Nc2[nH]cnc3c4cc(C)ccc4nc2-3)c1OC`, the IC50 was 0.571 µM (active) on Insulin-degrading enzyme; 24.9 µM (not active) in assay [14]; 3.73 µM (active) in assay [15]; > 66.6 µM (inactive) in [16]; > 49.8 µM (not active) against Genome polyprotein; 2.38 µM (active) in [17].
For `O=C(CCCCCn1c(=S)[nH]c2ccccc2c1=O)N1CCN(c2ccncc2)CC1`, the IC50 against Estrogen receptor is 0.03 µM (not active).
For `CCCC(=O)N1CCN(c2ccc(NC(=O)c3ccc([N+](=O)[O-])o3)cc2Cl)CC1`, the EC50 in the assay with HEK293 [18] was > 59.6 µM (inactive); with HEK293 [22], > 59.6 µM (inactive); in assay [5], 2.96 µM (active); in assay [7] it was 2.36 µM (active). Besides, the AC50 in [19] is 0.7 µM (active); in [20] it was 8.17 µM (active); in assay [21] it was 36.6 µM (active); in assay [23], 7.65 µM (active). Moreover, the CC50 with HeLa was 4.19 µM (active).
